This note sets out measurements from article PMC12516390 (ACS Medicinal Chemistry Letters, 2025).

Structures are written as SMILES. Where two headings read alike, the source gives them in different places.

This assay concerns SARS-CoV-2 (Omicron variant). Briefly: microbe, parasite or virus in culture. Format: cell-based.
Where [1] appears, read: Severe acute respiratory syndrome coronavirus 2, read-out: EC50 (μM) SARS-CoV-2/VeroE6-GFP.
The mark [2] stands for this setting: Severe acute respiratory syndrome coronavirus 2, read-out: EC50 (μM) SARS-CoV-2 / VeroE6-GFP.
[3] abbreviates: Severe acute respiratory syndrome coronavirus 2, Vero C1008, read-out: EC50 / activity in SARS-CoV-2 VeroE6 antiviral assay.

Take `COc1ccc(-c2ccc(C(=O)N[C@@H](CC3CCCCC3)C(=O)N[C@H](C#N)C[C@@H]3CCNC3=O)c(Cl)c2)cc1` [23c]: the EC50 under setting [1] was found to be 2.49 ± 0.2 µM.

Take `COc1ccc(-c2ccc(C(=O)N[C@@H](CC(C)C)C(=O)N[C@H](C#N)C[C@@H]3CCNC3=O)c(F)c2)cc1` [18b]: the EC50 under setting [2] stood at 5.67 µM. In the case of `COc1cccc(-c2ccc(C(=O)N3C[C@H]4[C@@H]([C@H]3C(=O)N[C@H](C#N)C[C@@H]3CCNC3=O)C4(C)C)c(Cl)c2)c1` [22f], the EC50 is 0.2 to 0.3 µM under setting [3] and 0.331 ± 0.05 µM under setting [1]. Turning to `COc1cccc(-c2ccc(C(=O)N[C@@H](CC(C)C)C(=O)N[C@H](C#N)C[C@@H]3CCNC3=O)cc2)c1` [6e], under setting [1], the EC50 came to 12.5 ± 0.5 µM. As to `COc1ccc(-c2ccc(C(=O)N[C@@H](CC(C)C)C(=O)N[C@H](C#N)C[C@@H]3CCNC3=O)c(C(F)(F)F)c2)cc1` [18m], the EC50 under setting [2] is 2.56 µM. Same read-out and setting: for `CC(C)C[C@H](NC(=O)c1ccc(-c2ccc3cnn(C)c3c2)cc1Cl)C(=O)N[C@H](C#N)C[C@@H]1CCNC1=O` [18q] the value was 3.02 µM. Regarding `COc1ccc(-c2ccc(C(=O)N[C@@H](CC(C)C)C(=O)N[C@H](C#N)C[C@@H]3CCNC3=O)cc2)cc1OC` [6f], the EC50 under setting [1] came to 11.9 ± 0.1 µM. For `COc1ccc(-c2ccc(C(=O)N[C@@H](CC(C)C)C(=O)N[C@H](C#N)C[C@@H]3CCNC3=O)c(Cl)c2)cc1` [18r], the EC50 under setting [2] was 1.57 µM. For `CC(C)(C)[C@H](NC(=O)C(F)(F)F)C(=O)N1C[C@H]2[C@@H]([C@H]1C(=O)N[C@H](C#N)C[C@@H]1CCNC1=O)C2(C)C` [nirmatrelvir, reference compound], the EC50 was 0.1 to 0.18 µM under setting [3] and 0.101 ± 0.2 µM under setting [1]. On to `COc1cccc(-c2ccc(C(=O)N[C@@H](CC(C)C)C(=O)N[C@H](C#N)C[C@@H]3CCNC3=O)c(Cl)c2)c1` [18n], for which the EC50 by setting is: under setting [2], 2.18 µM; under setting [1], 2.18 ± 0.2 µM. For `COc1cccc(-c2ccc(C(=O)N[C@@H](CC3CCCCC3)C(=O)N[C@H](C#N)C[C@@H]3CCNC3=O)c(Cl)c2)c1` [23d], the EC50 under setting [1] stood at 8.64 ± 0.3 µM. As to `COc1ccc(-c2ccc(C(=O)N3C[C@H]4[C@@H]([C@H]3C(=O)N[C@H](C#N)C[C@@H]3CCNC3=O)C4(C)C)c(Cl)c2)cc1` [22e], the EC50 by setting is: under setting [3], 0.2 to 0.3 µM; under setting [1], 0.289 ± 0.05 µM.

Consider `CC(C)C[C@H](NC(=O)c1ccc(-c2ccc3c(cnn3C)c2)cc1Cl)C(=O)N[C@H](C#N)C[C@@H]1CCNC1=O` [18o], for which, under setting [2], the EC50 stood at 4.25 µM.

As to `CC(C)C[C@H](NC(=O)c1ccc(-c2ccc3c(cnn3C)c2)cc1F)C(=O)N[C@H](C#N)C[C@@H]1CCNC1=O` [18c], under setting [2], the EC50 worked out at 6.34 µM. For the molecule `COc1ccc(-c2ccc(C(=O)N[C@@H](CC(C)C)C(=O)N[C@H](C#N)C[C@@H]3CCNC3=O)c(C)c2)cc1` [18k], under setting [2], the EC50 stood at 5.16 µM.

In the case of `CC(C)C[C@H](NC(=O)c1ccc(-c2cccc3nn(C)cc23)cc1Cl)C(=O)N[C@H](C#N)C[C@@H]1CCNC1=O` [18p], the EC50 under setting [2] was 11.8 µM. For the molecule `CC(C)C[C@H](NC(=O)c1ccc(-c2ccc3c(cnn3C)c2)cc1)C(=O)N[C@H](C#N)C[C@@H]1CCNC1=O` [6l], under setting [1], the EC50 stood at 11.1 ± 0.3 µM. For the molecule `CC(C)C[C@H](NC(=O)c1ccc(-c2cccc3nn(C)cc23)cc1F)C(=O)N[C@H](C#N)C[C@@H]1CCNC1=O` [18a], under setting [2], the EC50 was determined as 4.18 µM. In the case of `CC(C)C[C@H](NC(=O)c1ccc(-c2cccc3nn(C)cc23)cc1)C(=O)N[C@H](C#N)C[C@@H]1CCNC1=O` [6j], the EC50 under setting [1] worked out at 12.1 ± 0.5 µM.
